We go through five compounds from patent US10548898B2, “Quinazoline compounds” (Gilead Sciences, Inc., priority 2014, dated 2020).

Format in all cases: cell-based
The test system of one series is HIV-1 HBX2 (wild type). Description: High throughput cytopathic effect assay in MT-4 cells, wild type HIV-1. In short, it runs like this: (§1)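 MT-4 cells infected 1 h at 37 °C at MOI 0.0005, then plated onto ten-point half-log compound dilutions and incubated 5 days. Cell viability read by CellTiter-Glo luminescence, normalized to AZT and DMSO controls as % CPE protection; EC50 from four-parameter fit.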
A general note: Damage to the host cells serves as the signal in cytopathic effect assays.

Series [1] concerns HIV-1 reverse transcriptase mutant K103N. As to the kind of experiment: High throughput cytopathic effect assay in MT-4 cells, K103N mutant. Particulars: for EC50: Human immunodeficiency virus 1, MT4, 120 h, read-out: MT4 EC50 (nM) against K103N; for FC against mutant K103N: fold change of MT4 EC50 versus w.t. assay 2. The method, boiled down:
as §1

For series [2], the system named is HIV-1 reverse transcriptase mutant Y181C. As to the kind of experiment: High throughput cytopathic effect assay in MT-4 cells, Y181C mutant. Conditions: for EC50: Human immunodeficiency virus 1, MT4, 120 h, read-out: MT4 EC50 (nM) against Y181C; for FC against mutant Y181C: fold change of MT4 EC50 versus w.t. assay 2. The method, boiled down:
as §1

The test system of series [3] is HIV-1 recombinant strain encoding reverse transcriptase mutation K103N. As to the kind of experiment: Resistance profile against HIV-1 RT mutants in MT-2 cells, K103N. Conditions: ratio of mean EC50 mutant/WT virus. The method, then: (§2) Compounds were tested for antiviral activity against a panel of NNRTI resistant viruses. A panel of 8 clonal site-directed mutant viruses representing the major resistance development pathways against rilpivirine (“RPV”), efavirenz (“EFV”), and nevirapine (“NVP”), containing both single and double mutations within HIV-1 reverse transcriptase was employed. Further details and background can be found in Janssen et al. J. Med. Chem, 2005, 48, 1901-1909; Das et al., Proc. Nat. Acad. Sci., 2008, vol., 105, no. 5, 1466-1471; and Kuroda et al., Nature Chemistry, 2013, DOI: 10.1038/NCHEM. 1559. […] HIV-1 recombinant strains encoding reverse transcriptase mutations K103N, Y181C, Y188L, G190A, K103N/Y181C, L1001/Y181C, E138K or E138KIM 184V were constructed by site-directed mutagenesis. Wild-type and mutant viruses were prepared by transfecting infectious proviral HXB2-based cDNA clones into MT-2 cells and harvesting the cell supernatants. MT-2 cells were infected with wild-type and mutant HIV-1 strains at a multiplicity of infection (MOI) of 0.005 by gentle mixing for 3 hours at 37° C. and then added at a density of 16,667 cells per well in 50 μL complete RPMI cell culture media (containing 10% fetal bovine serum (FBS) and 10% penicillin-streptomycin) to 96-well plates containing 50 μL of a 3-fold serial dilution of test compounds in RPMI medium. After 5 days of incubation at 37° C. in a humidified incubator in the presence of 5% CO2. 100 μL of Cell Titer-Glo™ Reagent (Promega Biosciences, Inc., Madison, Wis.) was added to each well and the relative light units (RLU) measured on an Envision plate reader. […] The EC50 value was defined as the compound concentration inducing a 50% decrease in virus replication. Data analysis for the antiviral activity observed in MT-2 cells was performed using XL-Fit™ software (IDBS, Guildford, Surrey, UK) to calculate EC50 from an 8-point dose-response curve using the following equation:
(§3) [formula] where y=virus inhibition, x=drug concentration, M=maximum inhibition, H=minimum inhibition and n=Hill coefficient, EC50 values (mean±standard deviation) were calculated from at least three independent experiments performed in triplicate. The level of resistance was calculated as a ratio of the mean EC50 for each mutant/WT virus. Results are disclosed in FIG. 1 and in Tables 3 and 4 below.

Series [4] concerns HIV-1 recombinant strain encoding reverse transcriptase mutation Y181C. Description: Resistance profile against HIV-1 RT mutants in MT-2 cells, Y181C. Conditions: ratio of mean EC50 mutant/WT virus. As to the method:
as §2, §3

The subject of series [5] is HIV-1 recombinant strain encoding reverse transcriptase mutation L100I/Y181C. As to the kind of experiment: Resistance profile against HIV-1 RT mutants in MT-2 cells, L100I/Y181C. Particulars: ratio of mean EC50 mutant/WT virus. The method, then:
as §2, §3

In series [6] the test system is HIV-1 recombinant strain encoding reverse transcriptase mutation K103N/Y181C. Description: Resistance profile against HIV-1 RT mutants in MT-2 cells, K103N/Y181C. Conditions: ratio of mean EC50 mutant/WT virus. As to the method:
as §2, §3

In series [7] the test system is HIV-1 recombinant strain encoding reverse transcriptase mutation Y188L. Description: Resistance profile against HIV-1 RT mutants in MT-2 cells, Y188L. Conditions: ratio of mean EC50 mutant/WT virus. The method, then: as §2, §3
The test system of series [8] is HIV-1 recombinant strain encoding reverse transcriptase mutation G190A. Description: Resistance profile against HIV-1 RT mutants in MT-2 cells, G190A. Conditions: ratio of mean EC50 mutant/WT virus. The method, then: as §2, §3
In a further series the target is T1, hERG channels (Homo sapiens, UniProt Q12809).
T1 construct: host or cells: CHO cell line stably expressing hERG
As to the kind of experiment: hERG assay, whole cell recordings in CHO cell line stably expressing hERG channels. Particulars: CHO cells, whole cell patch clamp; greater than values indicate the maximum achievable concentration in the assay. The method, then:
AVIVA's CHO cell line, which stably expresses hERG channels, was used for the study. Cells were cultured in DMEM/F12 containing 10% FBS, 1% penicillin/streptomycin and 500 μg/ml G418. Before testing, cells were harvested using Accumax (Innovative Cell Technologies).
External Solution: 2 mM CaCl2; 2 mM MgCl2; 4 mM KCl; 150 mM NaCl; 10 mM Glucose; 10 mM HEPES; 305-315 mOsm; pH 7.4 (adjusted with 5M NaOH.)
Internal Solution: 140 mM KCl; 10 mM MgCl2; 6 mM EGTA; 5 mM HEPES-Na; 5 mM ATP-Mg; 295-305 mOsm; pH 7.25 (adjusted with 1M KOH).
Whole cell recordings were performed using PX 7000A (Axon Instruments) with AVIVA's SealChip™ technology. Cells were voltage clamped at a holding potential of −80 mV. The hERG current was then activated by a depolarizing step to −50 mV for 300 ms. This first step at −50 mV was used as a baseline for measuring peak amplitude of the tail current. Next, a voltage step to +20 mV was applied for 5 s to activate the channels. Finally, a step back to −50 mV for 5 s removed activation and the deactivating tail current was recorded.
All test articles were prepared from 10 mM DMSO stock solutions. Solutions were mixed by sonication for 20 min, followed by vigorous vortexing. Prior to testing, compounds were diluted to test concentrations in glass vials using External Solution. Dilutions were prepared no longer than 20 min prior to use.
After achieving whole cell configuration, cells were monitored for 90 s to assess stability and then washed with External Solution for 66 s. The voltage protocol was then applied to the cells every 12 s throughout the procedure. Only stable cells with recording parameters above threshold were allowed to enter the drug addition procedure.
External solution containing 0.1% DMSO (vehicle) was applied to the cells to establish a baseline. After allowing the current to stabilize for 3 to 10 min, test articles were applied. Test article solutions were added to cells in 4 separate additions. Cells were kept in test solution until effect of the test article reached steady state, to a maximum of 12 min. Next, 1 μM cisapride (positive control) was added. Finally, washout with External Solution was performed until the recovery current reached steady state.
Data analysis was performed using DataXpress (Axon Instruments), Clampfit (Axon Instruments) and Origin (OriginLab Corporation) software. The greater than values in Table 5 indicate the maximum achievable concentration in the assay (e.g., compounds achieving their solubility limit).

The mark [9] stands for this setting: Human immunodeficiency virus 1, MT4, 120 h, MT-4 cells, 5 days, cytopathic effect, Cell TiterGlo, read-out: MT4 EC50 (nM) against w.t.
Where [10] appears, read: Human immunodeficiency virus 1, MT4, read-out: MT4 EC50 (nM) against w.t. assay 2.

Where two headings read alike, the source gives them in different places. A value given as a limit tells only on which side of the number the result lay.

Usually EC50 stands for the concentration needed to bring the measured effect to its halfway point.

T1 sequence (Q12809 whole entry): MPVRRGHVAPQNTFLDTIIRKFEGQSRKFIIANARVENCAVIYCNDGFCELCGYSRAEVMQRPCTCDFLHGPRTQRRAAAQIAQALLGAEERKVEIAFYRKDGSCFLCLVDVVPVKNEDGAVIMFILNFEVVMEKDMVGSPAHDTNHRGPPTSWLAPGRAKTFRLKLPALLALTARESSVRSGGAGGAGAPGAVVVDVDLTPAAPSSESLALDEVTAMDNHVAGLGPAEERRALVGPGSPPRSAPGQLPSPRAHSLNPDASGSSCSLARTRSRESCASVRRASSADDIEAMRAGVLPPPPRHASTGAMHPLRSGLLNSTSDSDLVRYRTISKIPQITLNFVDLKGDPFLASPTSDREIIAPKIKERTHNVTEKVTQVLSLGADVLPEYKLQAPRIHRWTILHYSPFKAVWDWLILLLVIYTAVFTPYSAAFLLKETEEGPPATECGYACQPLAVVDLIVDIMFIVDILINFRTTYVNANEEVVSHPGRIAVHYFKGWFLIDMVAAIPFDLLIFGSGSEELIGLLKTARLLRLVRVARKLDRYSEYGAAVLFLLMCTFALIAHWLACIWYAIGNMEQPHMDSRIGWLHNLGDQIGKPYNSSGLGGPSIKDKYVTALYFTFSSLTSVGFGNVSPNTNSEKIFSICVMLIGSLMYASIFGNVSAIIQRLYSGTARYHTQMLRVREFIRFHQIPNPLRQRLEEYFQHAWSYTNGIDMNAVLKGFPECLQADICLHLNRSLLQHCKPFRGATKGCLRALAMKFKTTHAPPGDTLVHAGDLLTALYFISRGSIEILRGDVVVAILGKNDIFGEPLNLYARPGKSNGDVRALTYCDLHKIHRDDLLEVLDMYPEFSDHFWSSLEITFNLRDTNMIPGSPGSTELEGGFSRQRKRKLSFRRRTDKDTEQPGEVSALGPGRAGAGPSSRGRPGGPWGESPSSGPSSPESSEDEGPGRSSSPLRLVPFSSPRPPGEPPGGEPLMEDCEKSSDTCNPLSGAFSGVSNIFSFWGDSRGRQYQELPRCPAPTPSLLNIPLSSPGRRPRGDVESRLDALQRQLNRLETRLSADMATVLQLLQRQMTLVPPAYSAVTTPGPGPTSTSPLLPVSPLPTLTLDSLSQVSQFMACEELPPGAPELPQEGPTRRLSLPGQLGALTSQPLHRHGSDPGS

On to `Cc1cc(/C=C/C#N)cc(C)c1-c1cccc2cnc(Nc3ccc(C#N)cc3)nc12` [Compound 1, (E)-4-((8-(4-(2-Cyanovinyl)-2,6-dimethylphenyl)quinazolin-2-yl)amino)benzonitrile], for which the EC50 stood at 3 nM in the series with HIV-1 HBX2 (wild type) (setting [9]), 6.2 nM in the series on HIV-1 HBX2 (wild type) (setting [10]), 8.8 nM in series [1] and 17.8 nM in [2]. In addition, the “FC against mutant K103N” value in series [1] is given as 1.4. The “FC against mutant Y181C” value in series [2] was found to be 2.9. The “Biology resistance panel-low throughput fold change (FC) K103N” value in [3] came to 1.3. Further, the “Biology resistance panel-low throughput fold change (FC) Y181C” value in [4] was determined as 5.7. Also, the “Biology resistance panel-low throughput fold change (FC) L100I/Y181C” value in series [5] is listed as 6.9. In addition, the “Biology resistance panel-low throughput fold change (FC) K103N/Y181C” value in [6] is recorded as 14.8. Besides, the “Biology resistance panel-low throughput fold change (FC) Y188L” value in series [7] came out at 15.2. Also, in [8], the “Biology resistance panel-low throughput fold change (FC) G190A” value was 0.6.

For `Cc1cc(/C=C/C#N)cc(C)c1-c1cccc2c(N)nc(Nc3ccc(C#N)cn3)nc12` [Compound 10, (E)-6-((4-Amino-8-(4-(2-cyanovinyl)-2,6-dimethylphenyl)quinazolin-2-yl)amino)nicotinonitrile], the EC50 with HIV-1 HBX2 (wild type) (setting [9]) turned out to be 2.8 nM; with HIV-1 HBX2 (wild type) (setting [10]), 3 nM; in series [1], 2.9 nM; in series [2], 29.3 nM. Also, in series [1], the “FC against mutant K103N” value was 1.0. Also, the “FC against mutant Y181C” value in series [2] stood at 9.8. Moreover, in series [3], the “Biology resistance panel-low throughput fold change (FC) K103N” value was 0.9. Also, in series [4], the “Biology resistance panel-low throughput fold change (FC) Y181C” value came to 11.9. Further, in series [5], the “Biology resistance panel-low throughput fold change (FC) L100I/Y181C” value is reported as 3.8. In series [6], the “Biology resistance panel-low throughput fold change (FC) K103N/Y181C” value is reported as 19.9. The “Biology resistance panel-low throughput fold change (FC) Y188L” value in series [7] was found to be 53.6. In addition, at hERG channels, the “hERG” value was over 3 µM.

With `Cc1cc(/C=C/C#N)cc(C)c1-c1cccc2c(N)nc(Nc3ccc(C#N)nn3)nc12` [Compound 11, (E)-6-((4-Amino-8-(4-(2-cyanovinyl)-2,6-dimethylphenyl)quinazolin-2-yl)amino)pyridazine-3-carbonitrile], the EC50 in the series on HIV-1 HBX2 (wild type) (setting [9]) was determined as 4.7 nM; in the series on HIV-1 HBX2 (wild type) (setting [10]), 4.2 nM; in series [1], 5.2 nM; in [2] it was 126 nM. Moreover, in series [1], the “FC against mutant K103N” value stood at 1.2. Moreover, in series [2], the “FC against mutant Y181C” value came out at 29.8. In series [3], the “Biology resistance panel-low throughput fold change (FC) K103N” value was found to be 2.1. In addition, the “Biology resistance panel-low throughput fold change (FC) Y181C” value in series [4] was 154.0. Besides, the “Biology resistance panel-low throughput fold change (FC) L100I/Y181C” value in [5] was determined as 85.0. Besides, in series [6], the “Biology resistance panel-low throughput fold change (FC) K103N/Y181C” value was 157.0. Further, the “Biology resistance panel-low throughput fold change (FC) Y188L” value in series [7] is listed as 161.0. The “hERG” value at hERG channels is over 3 µM.

As for `O=C1Nc2ccc(Cl)cc2[C@@](C#CC2CC2)(C(F)(F)F)O1` [Efavirenz, reference compound], the EC50 in the series with HIV-1 HBX2 (wild type) (setting [9]) is 1.3 nM; with HIV-1 HBX2 (wild type) (setting [10]), 1.6 nM; in series [1], 46.4 nM; in series [2] it was 3.8 nM. Also, the “FC against mutant K103N” value in series [1] is 28.9. In addition, in [2], the “FC against mutant Y181C” value is recorded as 2.3. Moreover, the “Biology resistance panel-low throughput fold change (FC) K103N” value in series [3] is reported as 48.1. For the same compound, the “Biology resistance panel-low throughput fold change (FC) Y181C” value in series [4] was 3.6. In addition, in series [5], the “Biology resistance panel-low throughput fold change (FC) L100I/Y181C” value is over 200. Moreover, in [6], the “Biology resistance panel-low throughput fold change (FC) K103N/Y181C” value was found to be 83.5. In series [7], the “Biology resistance panel-low throughput fold change (FC) Y188L” value is 132.5. The “Biology resistance panel-low throughput fold change (FC) G190A” value in [8] amounted to 14.8.

For `Cc1ccnc2c1NC(=O)c1cccnc1N2C1CC1` [Nevirapine, reference compound], the concentration giving a half-maximal response (EC50) in the series with HIV-1 HBX2 (wild type) (setting [9]) is 65 nM. The “Biology resistance panel-low throughput fold change (FC) K103N” value in series [3] is reported as 87.0. The “Biology resistance panel-low throughput fold change (FC) Y181C” value in series [4] is over 229. The “Biology resistance panel-low throughput fold change (FC) L100I/Y181C” value in series [5] is reported as over 229. Moreover, in series [7], the “Biology resistance panel-low throughput fold change (FC) Y188L” value was over 229. In addition, in [8], the “Biology resistance panel-low throughput fold change (FC) G190A” value was 183.0.
